“Also recorded” adds a separate entry of the source. Read-outs that look alike come from different tables or passages of the source.
Experiments:
[1] = target: human β2-adrenergic receptor (Homo sapiens, UniProt P07550); assay: binding to human β2-adrenergic receptor (competition curves); settings: for adrenergic receptor agonist selectivity, in words: binding studies
Description: (§1) The four isomers of desformoterol, (R,R)-, (S,S)-, (R,S)-, and (S,R)-, and a 1:1 mixture of the (R,R)- and the (S,S)-enantiomers, were screened, in duplicate, at three concentrations (10^-9, 10^-7, 10^-5 M) for binding to human β1 and β2 -adrenergetic receptors. The compounds were then tested at ten concentrations in duplicate in order to obtain full competition curves. Reference compounds were simultaneously tested at eight concentrations.

[2] = target: human β1-adrenergic receptor (Homo sapiens, UniProt P08588); assay: binding to human β1-adrenergic receptor (competition curves)
human β1-adrenergic receptor, sequence (P08588 whole entry): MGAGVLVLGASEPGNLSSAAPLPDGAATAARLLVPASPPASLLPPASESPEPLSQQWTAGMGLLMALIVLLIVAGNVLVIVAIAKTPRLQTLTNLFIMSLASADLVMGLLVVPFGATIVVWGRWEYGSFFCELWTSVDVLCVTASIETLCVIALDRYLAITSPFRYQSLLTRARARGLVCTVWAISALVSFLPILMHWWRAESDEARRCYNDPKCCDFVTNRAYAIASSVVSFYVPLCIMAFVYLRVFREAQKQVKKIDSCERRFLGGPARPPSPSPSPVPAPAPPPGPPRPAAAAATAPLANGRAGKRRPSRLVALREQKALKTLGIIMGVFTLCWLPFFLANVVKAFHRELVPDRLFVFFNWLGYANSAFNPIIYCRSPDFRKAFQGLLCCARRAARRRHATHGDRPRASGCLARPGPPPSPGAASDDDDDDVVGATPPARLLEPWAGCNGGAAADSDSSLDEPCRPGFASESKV
Description: as §1

[3] = when inhaled; background statement; cited from earlier work
[4] = stability of desformoterol according to conditions; format: physicochemical; settings: pH of the environment
Text: It has been observed that the stability of desformoterol can vary according to conditions.

[5] = human β2-adrenergic receptor, ten concentrations in duplicate (reference compounds eight), read-out: IC50 β2
[6] = human β1-adrenergic receptor, ten concentrations in duplicate (reference compounds eight), read-out: IC50 β1

human β2-adrenergic receptor, sequence (P07550 whole entry): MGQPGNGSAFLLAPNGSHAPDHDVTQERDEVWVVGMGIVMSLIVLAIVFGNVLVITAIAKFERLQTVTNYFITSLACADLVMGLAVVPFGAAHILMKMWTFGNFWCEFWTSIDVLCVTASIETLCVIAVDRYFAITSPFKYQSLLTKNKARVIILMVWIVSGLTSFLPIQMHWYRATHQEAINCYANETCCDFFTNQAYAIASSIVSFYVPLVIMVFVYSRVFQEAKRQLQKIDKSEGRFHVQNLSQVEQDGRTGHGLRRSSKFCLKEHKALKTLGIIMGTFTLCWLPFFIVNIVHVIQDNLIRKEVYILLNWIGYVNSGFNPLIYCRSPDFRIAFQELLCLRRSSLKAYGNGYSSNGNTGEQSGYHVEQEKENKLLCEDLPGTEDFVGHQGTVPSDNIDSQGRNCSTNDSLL

SMILES	IC50 [1, 5]	β1/β2 Selectivity ([1]; ratio of IC50 values β1/β2)	binding/affinity at β1 site, in words ([2]; human β1-adrenergic receptor)	binding/affinity at β2 site, in words ([1]; human β2-adrenergic receptor)	adrenergic receptor agonist selectivity, in words [1]	further results
COc1ccc(C[C@H](C)NC[C@H](O)c2ccc(O)c(N)c2)cc1 [(R,S)-Desformoterol]	3.14 µM	< 1	Neither (R,S)- nor (S,R)-desformoterol showed high affinity for the β1 receptor; also recorded: comparable to that of atenolol at the β1 -site	–	–	IC50 [2, 6]: 1.79 µM
COc1ccc(C[C@H](C)NC[C@@H](O)c2ccc(O)c(N)c2)cc1 [(S,S)-Desformoterol]	–	< 6	lacked affinity for both β-adrenergic sites	lacked affinity for both β-adrenergic sites	–	IC50 [1]: > 10 µM; IC50 [2]: 64.7 µM
COc1ccc(C[C@@H](C)NC[C@H](O)c2ccc(O)c(N)c2)cc1 [(R,R)-Desformoterol, (R,R)-3-amino-4-hydroxy-α-[[[2-(4-methoxyphenyl)-1-methylethyl]amino]methyl]-benzenemethanol]	–	89	–	significant binding primarily at the β2 -site	highly selective β-adrenergic receptor agonists	IC50 [1]: 0.0356 µM; selectivity (β1/β2) for the β2-receptor ([1]; ratio of IC50 values β1/β2): approximately 89 fold; IC50 [2]: 3.18 µM
COc1ccc(C[C@@H](C)NC[C@H](O)c2ccc(O)c(N)c2)cc1 (relative stereo) [(R,R)-/(S,S)-Racemate of Desformoterol]	0.0813 µM	63	–	significant binding only at the β2 -site	highly selective β-adrenergic receptor agonists	IC50 [2, 6]: 5.14 µM
COc1ccc(C[C@@H](C)NC[C@@H](O)c2ccc(O)c(N)c2)cc1 [(S,R)-Desformoterol]	1.89 µM	–	Neither (R,S)- nor (S,R)-desformoterol showed high affinity for the β1 receptor	–	–	inhibition at 10 µM ([2]; at 10^-5 M): 22%
COc1ccc(C[C@@H](C)NC[C@H](O)c2ccc(O)c(NC=O)c2)cc1 (relative stereo) [Formoterol]	–	–	–	–	–	bronchodilating effect, in words [3]: long lasting bronchodilating effect
COc1ccc(CC(C)NCC(O)c2ccc(O)c(N)c2)cc1 (stereo not drawn) [desformoterol, 3-Amino-4-hydroxy-α-[[[2-(4-methoxyphenyl)-1-methylethyl]amino]methyl]-benzenemethanol]	–	–	–	–	highly selective β2 -adrenergic receptor agonist	pH of maximum stability [4]: 2
